In PubChem BioAssay (NCI):
“And” between values parts separate entries of the source, which are not always exact repeats. Identical values can stand only once.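 Grown in 96-well plates, cells were treated for 48 hours with each compound at five concentrations. Insufficient inhibition: endpoint recorded as highest concentration tested. GI50 is the concentration that inhibits growth by half. TGI denotes the concentration required for complete inhibition of growth.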

Key:
Assay in all cases: DTP human tumour cell line panel, 48 h
[1] = test system: EKVX NSCLC
[2] = test system: SK-MEL-5 melanoma
[3] = test system: COLO 205 colon
[4] = test system: MDA-MB-435
[5] = test system: SR leukemia
[6] = test system: SNB-19 CNS
[7] = test system: OVCAR-3 ovarian
[8] = test system: MALME-3M melanoma
[9] = test system: HL-60(TB) leukemia
[10] = test system: RXF 393 renal

| Compound | TGI [1] [µM] | TGI [2] [µM] | TGI [3] | TGI [4] [µM] | TGI [5] [µM] | TGI [6] [µM] | TGI [7] [µM] | TGI [8] [µM] | TGI [9] [µM] | TGI [10] [µM] | GI50 [3] [µM] | GI50 [5] [µM] | GI50 [8] [µM] |
| --- | --- | --- | --- | --- | --- | --- | --- | --- | --- | --- | --- | --- | --- |
| O=C(/C=C/c1ccc(O)c(-c2cc(C(=O)/C=C/c3ccc(O)cc3)c(O)cc2O)c1)c1ccc(O)cc1O | > 50 | > 50 | 24 µM | > 50 | 28.4 | > 50 | 43.8 | > 50 | > 50 | > 50 | – | – | – |
| CCCNC(=O)CCC(C)C1CCC2C3C(C[C@H](OC(C)=O)[C@]12C)[C@@]1(C)CCC2(C[C@H]1C[C@H]3OC(C)=O)OOC1(CC[C@]3(C)C4C[C@H](OC(C)=O)[C@]5(C)C(C(C)CCC(=O)NCCC)CCC5C4[C@H](OC(C)=O)C[C@@H]3C1)OO2 (stereo partly specified) | > 100 | > 100 | > 100 µM | > 100 | > 100 | > 100 | > 100 | > 100 | > 100 | > 87.1 | – | – | – |
| [N-]=[N+]=CC(=O)c1ccccc1C#CCCc1ccccc1 | 75.5 | 32.2 | 71.1 µM | – | > 100 | > 100 | 61.5 | 79.1 | 32.9 | > 100 | – | – | – |
| CC1=CC(=O)c2ccccc2C1=O | 31.8 | 5.92 | 31.8 µM | 3.81 | > 29 | 33.5 | 23.4 | 10.9 | 5.94 | 26.9 | – | – | – |
| CCC1CN(C(=O)c2ccccc2)C(Cc2c[nH]c3ccccc23)C(=O)C1CC(=O)OC (stereo unspecified) | > 100 | > 100 | > 100 µM | > 100 | > 100 | – | – | > 100 | > 100 | > 100 | – | – | – |
| CCOC(=O)C1=NN(c2ccc(C)cc2)C2=CC(C)=NN(C)C(=S)N21 | > 100 | > 100 | > 100 µM | > 100 | > 100 | > 100 | > 100 | – | > 100 | 30.1 | – | – | – |
| Nc1ccccc1S(=O)(=O)c1ccccc1 | > 100 | > 100 | > 100 µM | – | > 100 | > 100 | > 100 | > 100 | > 100 | > 100 | – | – | – |
| Cc1c(N2C(=O)CS(=O)(=O)C2c2cccc(Oc3ccccc3)c2)c(=O)n(-c2ccccc2)n1C (stereo unspecified) | > 100 | > 100 | 95.8 µM | > 100 | – | > 100 | > 100 | 60 | 53.4 | 79.3 | – | – | – |
| O=c1[nH]nc(NNc2ccccc2)c2nnn(C3CCCCC3)c12 | > 100 | > 100 | > 100 µM | > 100 | > 100 | > 100 | > 100 | > 100 | > 100 | – | – | – | – |
| COc1nc(C#CC2(O)CCCCC2)nc(OC)n1 | 35.6 | 20.2 | 45.5 µM | 18.8 | 17.4 | > 100 | 20.4 | 15.3 | 16.3 | 27 | – | – | – |
| COc1ccc(C(=O)c2sc(Nc3ccc(Cl)cc3)nc2N)cc1 | > 100 | > 100 | > 100 µM | 7.35 | > 45.2 | > 69.9 | 35 | > 59.4 | > 100 | > 54 | – | – | – |
| CCn1c(-c2ccc(N=NNc3ccc(-c4n[nH]c(=S)n4CC)cc3)cc2)n[nH]c1=S | 75.4 | 3.48 | – | – | > 100 | 9.53 | 5.61 | 7.75 | – | 11.8 | – | – | – |
| O=C(C[n+]1ccc2ccccc2c1)c1ccc2ccc3ccccc3c2c1 | 19.3 | 14.4 | 3.87 µM | 7.75 | 2.15 | 18.7 | 17.7 | 22.2 | – | 16.3 | – | – | – |
| CC(C)(C)c1cc(C2=NNC(c3ccccc3)C2)cc(C(C)(C)C)c1O (stereo unspecified) | 36.6 | 23 | 31.7 µM | 26.8 | 27.5 | 36.4 | 14.6 | 34.7 | – | 23.2 | – | – | – |
| COc1cccc2c1Cc1cc(-c3ccccc3)[n+](C)n1-2 | 8.22 | 21.7 | 7.46 µM | 25.5 | > 100 | > 100 | > 100 | 25.6 | 44.9 | 73.6 | – | – | – |
| CCCCCCCCC/C=C/C=C/C(=O)NCC(=O)NC1C(O)C(O)C(Nc2ncnc3nc[nH]c23)OC1C(O)CO (stereo unspecified) | – | 0.12 | 0.00389 µM and 0.0337 µM | 0.256 | – | – | 0.0436 | 0.381 | – | 0.0163 | 0.0002 | 0.765 | 0.00446 |
| O=C(OCN1C(=O)C2C3C=CC(C2C1=O)C1C2C(=O)N(COC(=O)C4CCCN4)C(=O)C2C31)C1CCCN1 (stereo unspecified) | > 100 | > 100 | > 100 µM | – | 26.4 | > 100 | > 100 | > 100 | 43.6 | > 100 | – | – | – |
| O=C(/C=C/c1ccccc1)NNC(=O)c1c(Cl)c(Cl)c(Cl)c(Cl)c1-c1nc2ccccc2[nH]1 | > 100 | 62.4 | 33.2 µM | > 100 | > 100 | – | > 100 | 59.1 | 50.7 | 47.3 | – | – | – |
| Nc1nc(SCCc2ccccc2)nc2nc3c(c(-c4ccccc4)c12)CCCC3 | > 100 | – | > 100 µM | > 100 | – | > 100 | > 100 | > 100 | > 100 | 81.1 | – | – | – |
| CC12CC3OC(=O)C1COC14OC5(C2C1=O)C(O)(CCC1C4CC(O)C2(O)CC=CC(=O)C12C)C(=O)OC35C (stereo unspecified) | > 100 | > 100 | > 100 µM | > 100 | – | > 100 | > 100 | > 100 | > 100 | – | – | – | – |
